# Where two headings read alike, the source gives them in different places.
# Tests used:
# [1] = Pharmacokinetics after IV dose in mice; conditions: in vivo, 1 mg/kg IV, male C57BL/6 mice; for AUC(0-t): male, C57BL/6, mouse, iv, 1 mg/kg; for AUC(0-inf) / C0 / MRT inf / clearance / half-life / Vd: mouse; for Vd: read-out: Vss
# Method: Male C57BL/6 mice were administered an intravenous (IV) dose of 1 mg/kg of the indicated compound.
# LPS-induced PBMCs = assay: Inflammatory cytokine release from LPS-induced PBMCs (Luminex); type: cell-based, human; conditions: fold change from LPS-treated PBMCs, compounds 10 μM (DEX 1 μg/ml) 2 h, then LPS 0.1 μg/ml 24 h, negative = reduced
# Summary of the method: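 Human PBMCs from healthy donors pretreated 2 hours with compound at 10 μM (triplicate), then stimulated with 0.1 μg/ml LPS for 24 hours. Supernatant cytokines measured by magnetic Luminex; values given as fold change versus LPS-treated PBMCs, negative meaning reduction; cytotoxicity also assessed.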
# [2] = Brain concentration and brain/plasma ratio after PO dose in mice; type: in vivo; conditions: mouse, 10 mg/kg PO, male C57BL/6 mice; for Kp at 4 h / Kp at 10 h: brain/plasma; for concentration at 4 h / concentration at 10 h / concentration at 24 h: brain
# Method: Male C57BL/6 mice were administered an oral (P0) dose of 10 mg/kg of the indicated compound. The brain/plasma ratios of the indicated compounds were determined by standard methods, the results of which are provided in Table 11.
# [3] = OOR = out of standard curve range
Compound,AUC(0-t) ([1]; read-out: AUC0-24 hr) [ng·h/mL],AUC(0-t) ([1]; read-out: AUClast) [ng·h/mL],AUC(0-inf) [1] [ng·h/mL],C0 [1] [ng/mL],MRT inf [1] [h],clearance [1] [mL/min/kg],half-life [1] [min],Vd [1] [L/kg],Kp at 4 h [2],Kp at 10 h [2],concentration at 4 h [2] [ng/g],concentration at 10 h [2] [ng/g],concentration at 24 h [2] [ng/g],also measured
"CCCCCCC(C)(C)c1cc(O)c2c(c1)OC(C)(C)[C@@H]1CC=C(C(=O)O)C[C@@H]21 [AJA, (6aR,10aR)-1-hydroxy-6,6-dimethyl-3-(2-methyl-2-octanyl)-6a,7,10,10a-tetrahydro-6H-benzo[c]chromene-9-carboxylic acid, reference compound]",2770,2420,2510,1750,1.89,6.67,84.6,0.75,–,–,–,–,–,–
"CCCCCCC(C)(C)c1cc(O)c2c(c1)OC(C)(C)[C@@H]1CC=C(C(=O)NC(C)(C)CCO)C[C@@H]21 [Compound 15, (6aR,10aR)-1-Hydroxy-N-(4-hydroxy-2-methylbutan-2-yl)-6,6-dimethyl-3-(2-methyloctan-2-yl)-6a,7,10,10a-tetrahydro-6H-benzo[c]chromene-9-carboxamide]",1720,1510,1570,1840,2.16,10.6,104,1.37,0.139,0.331,107,50.4,0,IL17A (LPS-induced PBMCs): −3.1 fold change; IL-1β (LPS-induced PBMCs): −5.9 fold change; IL-4 (LPS-induced PBMCs): −2.7 fold change; IL-6 (LPS-induced PBMCs): −107.7 fold change; IL-8 (LPS-induced PBMCs): −2.4 fold change; IL-10 (LPS-induced PBMCs): −299.9 fold change; MCP-1 (LPS-induced PBMCs): −213.2 fold change; TNFα (LPS-induced PBMCs): −75.9 fold change; IL-12 (p70) (LPS-induced PBMCs; [3]): OOR; L-31 (LPS-induced PBMCs; [3]): OOR
"CCCCCCC(C)(C)c1cc(O)c2c(c1)OC(C)(C)[C@@H]1CC=C(C(=O)OC(C)C)C[C@@H]21 [Compound 29, Isopropyl (6aR,10aR)-1-hydroxy-6,6-dimethyl-3-(2-methyloctan-2-yl)-6a,7,10,10a-tetrahydro-6H-benzo[c]chromene-9-carboxylate]",3550,3550,3570,17500,1.53,4.67,293,0.43,0.00637,0.106,1.72,7.93,0,–
"CCCCCCC(C)(C)c1cc(O)c2c(c1)OC(C)(C)[C@@H]1CC=C(C(=O)NC[C@@H](O)CO)C[C@@H]21 [Compound 55, (6aR,10aR)-N—((R)-2,3-Dihydroxypropyl)-1-hydroxy-6,6-dimethyl-3-(2-methyloctan-2-yl)-6a,7,10,10a-tetrahydro-6H-benzo[c]chromene-9-carboxamide]",2360,2360,2380,3060,3.38,7.02,239,1.42,–,–,–,–,–,–
"CCCCCCC(C)(C)c1cc(O)c2c(c1)OC(C)(C)[C@@H]1CC=C(C(=O)NC[C@H](O)CO)C[C@@H]21 [Compound 56, (6aR,10aR)-N—((S)-2,3-Dihydroxypropyl)-1-hydroxy-6,6-dimethyl-3-(2-methyloctan-2-yl)-6a,7,10,10a-tetrahydro-6H-benzo[c]chromene-9-carboxamide]",2080,1790,1920,2790,2.3,8.7,143,1.2,–,–,–,–,–,–

# From US20210284621A1 (priority 2018, published 2021)
